Like-named read-outs stand apart in the source and are kept apart here.
Tests used:
[1] = system: reactive oxygen species (ROS); assay: ROS production in FFA-stressed cells; assay type: cell-based, human; details: averaged % of increase (+) or decrease (−) compared to control (FFA induced oxidatively stressed endothelial cells), n = 3
From the text: The assays focused on the production of nitric oxide (NO) and the upregulation of nitric oxide synthase (eNOS), the production of reactive oxygen species (ROS) and the activity of nicotinamide adenine dinucleotide phosphate (NADPH) oxidase (Table 2). From the hypothesised model of heparan sulfate-glycomimetic activity,[17] the glycomimetics are proposed to attenuate the binding of HGF to the cMET receptor. This disruption to MET-receptor activation is proposed to modulate intracellular phosphorylation leading to an upregulation of eNOS and increased output of extracellular NO. […] Overall, the cross examination of NO output and reduction of ROS was used to determine the therapeutic action of the triaged glycomimetics α-4, R-10, S-10 and β-5, as well as 3 non-sulfated intermediates α-2, α-3 and β-3, on free fatty acid (FFA) induced, oxidatively stressed endothelial cell cultures (Table 2).
Biological assay and AMDET experimental details […]
Preparation of FFA-albumin complexes and cell treatments
To generate the in vitro model of oxidative stress, sodium palmitate was bound to bovine serum albumin (BSA) as outlined by Chavez and Summers,S2 with modifications. Sodium palmitate (FFA) was dissolved in EtOH at 60 °C and diluted 1:100 in M199 media supplemented with 2% fatty acid-free bovine serum albumin (BSA) and incubated for 1 h at 37 °C. HepG2 cells were treated with 1 μmol/L of the synthesized HS-glycomimetics in the presence of palmitate (100 μmol/L) for 3 h or pre-treated with glycomimetics for 12 h followed by 3 h palmitate (100 μmol/L). Control cells were incubated in serum free M199 containing 2% (wt/vol) fatty acid-free BSA.
NO release assay and Quantification of ROS production […]
The auto-fluorescence was subtracted from each value. Cells were incubated with 10 μmol/L of the fluorescent probe: 2′-7′-dichlorodihydrofluorescein diacetate (CM-H2DCFDA, Sigma) for 30 min at 37 °C, and the level of fluorescence was determined (excitation 490 nm; emission 540 nm) using a microplate reader (BioTek).
The level of NADPH-enhanced superoxide anions (O2•−) in HepG2 homogenates was determined by lucigenin-enhanced chemiluminescence.S4 Following the various treatment conditions, cells were homogenized in a buffer (20 mmol/L H2KPO4 and 1 mmol/L EDTA supplemented with aprotinin, leuprotinin, pepstatin and PMSF). The total protein quantified using the Bicinchoninic acid (BCA) assay (Pierce Biotechnology). To 50 μg of total protein, NADPH (100 μmol/L) was added in a total volume of 500 μL, with lucigenin (5 μmol/L) and was injected automatically. Activity was determined by measuring luminescence over 200 s in a scintillation counter (Lumat LB 9507, Berthold, Germany). Basal values of NADPH oxidase activity were subtracted from the experimental values and expressed as RLU/min/μg protein […]
In situ quantification of ROS species
Superoxide dismutase (SOD) and catalase (CAT) activity assays, and in situ detection of vascular ROS content. The activity of the enzymes, SOD and CAT, was determined in cell homogenates using assay kits according to the manufacturer's instructions (Cayman; Cat No 706002 and 707002 respectively). A unit of SOD was defined as the amount of enzyme […]
Similarly, a unit of CAT was […]
defined as the amount required to form 1.0 nmol of formaldehyde per min at 25 °C.S5 […]
HepG2 cells were incubated in serum-free DMEM containing 2% fatty acid-free BSA (control) or palmitate conjugated BSA (100 μmol/L) in the presence of HS-glycomimetics (1 or 10 μmol/L) for 24 h. The cells were incubated for 30 min in Hepes-buffered solution containing 10 μmol/L dihydroethidium (DHE), which intercalates with DNA in the presence of ROS and is detectable by fluorescence. Cells were counterstained with the nuclear stain DAPI at 0.3 μmol/L. In the following 24 h, the cell cultures were examined using a fluorescence microscope (Leica DMIRB). Sections were photographed and fluorescence was quantified using ImageJ. […]

[2] = Turbidimetric kinetic aqueous solubility; assay type: physicochemical
Procedure: Physicochemical and ADMET properties of representative glycomimetics. […] The cells were incubated for 30 min in Hepes-buffered solution containing 10 μmol/L dihydroethidium (DHE), which intercalates with DNA in the presence of ROS and is detectable by fluorescence. Cells were counterstained with the nuclear stain DAPI at 0.3 μmol/L. In the following 24 h, the cell cultures were examined using a fluorescence microscope (Leica DMIRB). Sections were photographed and fluorescence was quantified using ImageJ. All parameters (pinhole, contrast, gain and offset) were held constant for all sections from the same experiment. ROS production was estimated from the ratio of ethidium/DAPI fluorescence.S6 Western blot analysis HepG2 wells were lysed in RIPA buffer containing proteinase inhibitors and the total protein was quantified using BCA protein assay kit (Pierce Biotechnology). Proteins (30 μg/well) were denatured and separated by sodium dodecyl sulfate (SDS)-polyacrylamide gel electrophoresis and transferred to polyvinylidene difluoride (PVDF) membranes. Blots were blocked for 1 h in 5% semi-skimmed milk/Tris-Buffered Saline Tween-20 (TBS-T), probed with primary rabbit anti-phospho-protein kinase B (Akt), rabbit anti-Akt (Santa Cruz Biotechnology), rabbit polyclonal anti-phospho-eNOS (Cell Signaling) overnight at 4 °C followed by washing and incubation with the corresponding horse radish peroxidase-labelled secondary antibody for 1 h at room temperature. After washing with TBS-T, membranes were incubated with ECL reagent and visualized (Amersham Pharmacia Biotech). Densitometry analysis using ImageJ© (version 1.32j, NIH) was used to quantify the protein signal.S7 Turbidimetric Aqueous Solubility Test compound (10 mM in DMSO) was serially diluted to give solutions of 0.1, 0.3, 1 and 3 mM in DMSO. Each test compound concentration was then further diluted 1 in 100 in buffer (typically 0.01 M phosphate buffered saline pH 7.4) so that the final DMSO concentration is 1 % and the final test compound concentrations are 1, 3, 10, 30 and 100 µM. The experiment is performed at 37 °C and each concentration is incubated in 7 replicate wells. The plates are incubated for 2 h at 37 °C before the absorbance is measured at 620nm. Nicardipine (pH dependent) and pyrene (pH independent) are included as control compounds. The solubility is estimated from the concentration of test compound that produces an increase in absorbance above vehicle control (1% DMSO in buffer). S11

[3] = phosphate buffered saline, turbidimetric assay, PBS pH 7.4, 37 °C, 2 h, read-out: Kinetic solubility

## COC(=O)c1cc(OC[C@H](COS(=O)(=O)[O-])OS(=O)(=O)[O-])ccc1OCCCCOS(=O)(=O)[O-].[Na+].[Na+].[Na+] [Compound R-10, sodium (R)-3-(3-(methoxycarbonyl)-4-(4-(sulfonatooxy)butoxy)phenoxy)propane-1,2-diyl bis(sulfate)]
[1]
  ROS production: −23%
[2]; [3]
  solubility kinetic at 2 h: > 100 µM

## COC(=O)c1cc(OC[C@@H](COS(=O)(=O)[O-])OS(=O)(=O)[O-])ccc1OCC(COS(=O)(=O)[O-])OS(=O)(=O)[O-].[Na+].[Na+].[Na+].[Na+] (mixture of isomers) [α-4, sodium 3-(4-((S)-2,3-bis(sulfonatooxy)propoxy)-2-(methoxycarbonyl)phenoxy)propane-1,2-diyl bis(sulfate)]
[1]
  ROS production: −28%
[2]; [3]
  solubility kinetic at 2 h: > 100 µM

## COC(=O)c1cc(OC[C@@H](COS(=O)(=O)[O-])OS(=O)(=O)[O-])ccc1OCCCCOS(=O)(=O)[O-].[Na+].[Na+].[Na+] [Compound S-10, sodium (S)-3-(3-(methoxycarbonyl)-4-(4-(sulfonatooxy)butoxy)phenoxy)propane-1,2-diyl bis(sulfate)]
[1]
  ROS production: −39%
[2]; pH 7.4
  solubility kinetic at 2 h: > 100 µM

## O=C([O-])c1cc(OC[C@H](COS(=O)(=O)[O-])OS(=O)(=O)[O-])ccc1OCC(COS(=O)(=O)[O-])OS(=O)(=O)[O-].[Na+].[Na+].[Na+].[Na+].[Na+] (mixture of isomers) [β-5, sodium 5-((R)-2,3-bis(sulfonatooxy)propoxy)-2-(2,3-bis(sulfonatooxy)propoxy)benzoate]
[1]
  ROS production: −29%
[2]; [3]
  solubility kinetic at 2 h: > 100 µM
